Values after ≈ are worked out from the molar mass of the structure shown. Read-outs that look alike come from different tables or passages of the source.
Legend:
[1] = SKA-41 concentrations in plasma and brain by LC/MS after i.p. injection; format: in vivo; details: rat; for concentration at 1 h: male, intraperitoneal, 10 mg/kg i.p., n=3 rats
Procedure: Twelve week-old male Sprague-Dawley rats were purchased from Charles River Laboratories (Wilmington, Mass.) and housed in microisolator cages with rodent chow and autoclaved water ad libitum. All experiments were in accordance with National Institutes of Health guidelines and approved by the University of California, Davis Institutional Animal Care and Use Committee.
SKA-41 is dissolved in Miglyol 812 neutral oil (caprylic/capric triglyceride; Trade name Neobee M5, Spectrum Chemicals, Gardena, Calif., USA) at 1 mg/mL and injected intraperitoneally at 10 mg/kg. After 1 hour, rats (n=3) are subjected to cardiac puncture under deep isoflurane anesthesia and then sacrificed before removing the brain. Blood is collected into EDTA blood sample collection tubes. Plasma is separated by centrifugation and samples stored at −80° C. pending analysis.
Commercial SPE cartridges (Hypersep C18, 100 mg, 1 mL) are purchased from Thermo Scientific (Houston, Tex., U.S.A). Before the extraction, cartridges are conditioned with acetonitrile, 2×1 mL, followed by water 2×1 mL. After loading the SPE cartridges with plasma samples, they are washed with 2×1 mL of 20% acetonitrile in water followed by elution with a 2×1 mL of acetonitrile. Elute fractions are collected and evaporated to dryness. The residues are reconstituted to solution using appropriate volume of acetonitrile and used for LC-MS analysis.
Brain samples are treated as following: 4.0 mL of acetonitrile is added to 200 mg of tissue sample and homogenized thoroughly using a T25 digital ULTRA-TURRAX® homogenizer (IKA® Works Inc., NC, USA). The homogenized samples are centrifuged for 10 min at 4000 rpm, the supernatant is separated and evaporated under a constant air flow as described above. The residues are reconstituted using appropriate volume of acetonitrile. The reconstituted material is loaded onto the preconditioned SPE cartridges it is then eluted with 2 mL of acetonitrile. Load and elute fractions are collected and evaporated to dryness. The residues are reconstituted to solution with 200 μL acetonitrile and used for LC-MS analysis. […]
Using Heated electrospray ionization source (HESI II) in positive ion mode, capillary temperature 300° C., vaporizer temperature: 250° C., spray voltage 3000 V, sheath gas pressure (N2) 30 units, auxiliary gas pressure (N2) 5 units, ion sweep gas pressure (N2) 1 unit, SKA-41 was analyzed by the selective reaction monitoring (SRM) transition of its molecular ion peak 261.0 (M+1)^+ into 175.0 and 133.0 m/z. An 8-point calibration curve spanning a concentration range from 50 nM to 10 μM range was developed for quantification.

[2] = system: rats injected with kainic acid (KA); assay: Kainic acid (KA) seizure model, behaviour; format: in vivo, rat
Description: […]. Systemic administration of the glutamate analog, kainic acid (KA), to rats produces progressive limbic seizures culminating in status epilepticus that results in neuronal loss within limbic structures in a pattern similar to that observed in human temporal lobe epilepsy.

[3] = system: hippocampal neurons of KA-treated rats; assay: KA-induced status epilepticus model, hippocampal neurodegeneration (fluoro-jade B, NeuN); format: in vivo, rat; details: rat, in vivo
Description: (§1) In Aim 3, we treat male and female rats with the ‘best’ SKA-41 derivatives before and after injection of kainic acid (KA). The KA-induced status epilepticus (SE) model is a well-validated model of temporal lobe epilepsy (TLE), the major form of human epilepsy. The model allows studying the different stages between SE and the development of TLE including SE, the acute and latent stages of epileptogenesis and chronic epilepsy. The excitotoxin KA causes excessive Glu release in the hippocampus and selective destruction of inhibitory SOM interneurons in the hilus region of the dentate gyrus (DG) and loss of pyramidal neurons in the CA3 (esp), and also CA1 regions. We scaled up synthesis of SKA-41, 219, and SKA-378. The identity of the compounds was confirmed by ^1H- and ^13C-NMR and high-resolution mass spectrometry. Compound purity is determined by HPLC and no compounds with less then 98% purity were used. […] Rats were processed for immunohistochemistry 3 days after KA administration. As expected, we find that KA treatment induces significant neural damage (green cells) in the CA3 pyramidal neuron subfield and in neurons in the hilus (FIG. 20 Panel A), which are SOM containing GABAergic interneurons (not shown). Fluoro jade B is a high affinity fluorescent marker used for the localization of neuronal degeneration. […] In studies, we have also administered SKA-378 (30 mg/kg) one hr after the onset of stage IV seizures (SE), followed by another injection at 4 hr post SE and then once each day for 3 days. We find that SKA-378 is also neuroprotective under these conditions.
as §1, with “with” for “with the ‘best’”, “(esp)” for “(esp),”, “were” for “was”, “We” for “As expected, we”, “23” for “20”, “Fluoro-jade” for “Fluoro jade”

[4] = Max. solubility (Table 1); format: physicochemical

Q: Which Kp at 1 h ([1]; Sprague-Dawley, brain/plasma, ip, 10 mg/kg i.p. in Miglyol 812, 1 h, 3 male rats, read-out: brain/plasma ratio) does the source give for Nc1nc(-c2ccc(OC(F)(F)F)cc2)cs1 [SKA-41, 4-(4-(Trifluoromethoxy)phenyl)thiazol-2-amine] here?
A: ~7

Q: What about the concentration at 1 h ([1]; Sprague-Dawley, brain, read-out: brain concentration, average) of the same compound?
A: 12.6 µM

Q: What about the concentration at 1 h ([1]; Sprague-Dawley, plasma, read-out: plasma concentration, average) of the same compound?
A: 1.77 µM

Q: And the “brain penetration (brain/plasma ratio) relative to riluzole” value ([1]; in vivo)?
A: seven times higher

Q: And the “time until staring and twitching signs disappeared after KA injection” value ([2]; SKA-41 30 mg/kg pretreatment)?
A: ≤ 2 h

Q: And the “clonic-tonic convulsions after KA” value ([2]; rat, in vivo)?
A: clonic-tonic convulsions were not observed

Q: And the “neuroprotection against Glu-induced excitotoxicity in the KA model of TLE” value [3]?
A: neuroprotective

Q: What about the solubility [4] of the same compound?
A: 50 µM (≈ 13 µg/mL)

From patent US11974988B2, “Neuroprotective compositions and methods of using the same” (The Board of Supervisors of Louisiana State Univer …, priority 2018, dated 2024)
